According to patent publication US6355799B1, “Substituted benzene compounds, process for their preparation, and herbicidal and defoliant compositions containing them” (ISK Americas Incorporated, priority 1997, dated 2002):

Tests used:
Assay type in all cases: in vivo
[1] = test system: velvetleaf (Abutilon theophrasti, ABUTH); test: Post-emerge test, greenhouse herbicide activity screening; details: post-emerge, 14 days after application, rating scale 0-100
Procedure, shortened: (§1)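 Visual ratings on a 0-100 scale (0 no damage, 100 all plants dead) were taken at 14 days after treatment. Rates of 15-1000 g ai/ha in acetone, 187 l/ha, were sprayed onto soil one day after planting (pre-emerge) or onto 2-3 leaf plants with 0.25% v/v surfactant (post-emerge).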

[2] = test system: johnsongrass (Sorghum halepense, SORHA); test: as above; details: post-emerge, 14 days after application, rating scale 0-100
Procedure, shortened: as §1

[3] = test system: ivyleaf morningglory (Ipomoea hederacea, IPOHE); test: as above; details: post-emerge, 14 days after application, rating scale 0-100
Procedure, shortened: as §1

[4] = test system: barnyardgrass (Echinochloa crus-galli, ECHCG); test: as above; details: post-emerge, 14 days after application, rating scale 0-100
Procedure, shortened: as §1

[5] = test system: lambsquarters (Chenopodium album, CHEAL); test: as above; details: post-emerge, 14 days after application, rating scale 0-100
Procedure, shortened: as §1

[6] = test system: sicklepod (Cassia obtusifolia, CASOB); test: as above; details: post-emerge, 14 days after application, rating scale 0-100
Procedure, shortened: as §1

[7] = test system: redroot pigweed (Amaranthus retroflexus, AMARE); test: as above; details: post-emerge, 14 days after application
Procedure, shortened: as §1

[8] = test system: large crabgrass (Digitaria sanguinalis, DIGSA); test: as above; details: post-emerge, 14 days after application, rating scale 0-100
Procedure, shortened: as §1

[9] = test system: green foxtail (Setaria viridis, SETVI); test: as above; details: post-emerge, 14 days after application, rating scale 0-100
Procedure, shortened: as §1

[10] = test system: redroot pigweed (Amaranthus retroflexus, AMARE); test: Pre-emerge test, greenhouse herbicide activity screening; details: for phytotoxicity rating AMARE: pre-emerge, 14 days after application, rating scale 0-100; for Pre-emerge Herbicidal Activity, phytotoxicity rating (0-100), AMARE: rated 14 days after application, 0 = no damage, 100 = complete death
Procedure, shortened: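 Compounds in acetone were track-sprayed at 187 l/ha, 15–1000 g ai/ha, onto sandy loam pots. Pre-emerge seeds were sown one day before spraying, with surface watering afterwards. Post-emerge plants were at the 2–3 leaf stage and sprayed with 0.25% v/v non-ionic surfactant. Injury was rated 0–100 at 14 days.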

[11] = test system: velvetleaf (Abutilon theophrasti, ABUTH); test: as above; details: for phytotoxicity rating ABUTH: pre-emerge, 14 days after application, rating scale 0-100; for Pre-emerge Herbicidal Activity, phytotoxicity rating (0-100), ABUTH: rated 14 days after application, 0 = no damage, 100 = complete death
Procedure, shortened: (§2)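 Fourteen days after spraying, crop and weed injury was graded visually from 0, no effect, to 100, every plant dead. Test substances were dissolved in acetone and applied at 15–1000 g ai/ha with a flat-fan nozzle. Application was either pre-emergence, one day after sowing, or post-emergence at the 2–3 leaf stage.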

[12] = test system: johnsongrass (Sorghum halepense, SORHA); test: as above; details: for phytotoxicity rating SORHA: pre-emerge, 14 days after application, rating scale 0-100; for Pre-emerge Herbicidal Activity, phytotoxicity rating (0-100), SORHA: rated 14 days after application, 0 = no damage, 100 = complete death
Procedure, shortened: as §2

[13] = test system: ivyleaf morningglory (Ipomoea hederacea, IPOHE); test: as above; details: for phytotoxicity rating IPOHE: pre-emerge, 14 days after application, rating scale 0-100; for Pre-emerge Herbicidal Activity, phytotoxicity rating (0-100), IPOHE: rated 14 days after application, 0 = no damage, 100 = complete death
Procedure, shortened: as §2

[14] = test system: barnyardgrass (Echinochloa crus-galli, ECHCG); test: as above; details: for phytotoxicity rating ECHCG: pre-emerge, 14 days after application, rating scale 0-100; for Pre-emerge Herbicidal Activity, phytotoxicity rating (0-100), ECHCG: rated 14 days after application, 0 = no damage, 100 = complete death
Procedure, shortened: as §2

[15] = test system: lambsquarters (Chenopodium album, CHEAL); test: as above; details: for phytotoxicity rating CHEAL: pre-emerge, 14 days after application, rating scale 0-100; for Pre-emerge Herbicidal Activity, phytotoxicity rating (0-100), CHEAL: rated 14 days after application, 0 = no damage, 100 = complete death
Procedure, shortened: as §2

[16] = test system: sicklepod (Cassia obtusifolia, CASOB); test: as above; details: for phytotoxicity rating CASOB: pre-emerge, 14 days after application, rating scale 0-100; for Pre-emerge Herbicidal Activity, phytotoxicity rating (0-100), CASOB: rated 14 days after application, 0 = no damage, 100 = complete death
Procedure, shortened: as §2

[17] = test system: large crabgrass (Digitaria sanguinalis, DIGSA); test: as above; details: for phytotoxicity rating DIGSA: pre-emerge, 14 days after application, rating scale 0-100; for Pre-emerge Herbicidal Activity, phytotoxicity rating (0-100), DIGSA: rated 14 days after application, 0 = no damage, 100 = complete death
Procedure, shortened: as §2

[18] = test system: green foxtail (Setaria viridis, SETVI); test: as above; details: for phytotoxicity rating SETVI: pre-emerge, 14 days after application, rating scale 0-100; for Pre-emerge Herbicidal Activity, phytotoxicity rating (0-100), SETVI: rated 14 days after application, 0 = no damage, 100 = complete death
Procedure, shortened: as §2

[19] = test system: upland rice (Oryza sp., var. Tebonnet, RICE); test: Pre-emerge test, crop safety; details: for phytotoxicity rating RICE: pre-emerge, 14 days after application, rating scale 0-100; for Pre-emerge phytotoxicity rating (0-100), crop damage, RICE: rated 14 days after application, 0 = no damage, 100 = complete death
Procedure, shortened: (§3)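 Compounds in acetone were track-sprayed at 15-1000 g ai/ha (187 l/ha) on sandy loam pots: pre-emerge one day after seeding, post-emerge at 2-3 leaf stage with 0.25% v/v non-ionic surfactant. Phytotoxicity was rated 14 days later on a 0 (no damage) to 100 (complete death) scale.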

[20] = test system: field corn (Zea mays L., var. Dekalb 535, CORN); test: Pre-emerge test, crop safety; details: for phytotoxicity rating CORN: pre-emerge, 14 days after application, rating scale 0-100; for Pre-emerge phytotoxicity rating (0-100), crop damage, CORN: rated 14 days after application, 0 = no damage, 100 = complete death
Procedure, shortened: as §3

[21] = test system: upland rice (Oryza sp., var. Tebonnet, RICE); test: Post-emerge test, crop safety; details: post-emerge, 14 days after application, rating scale 0-100
Procedure, shortened: as §2

[22] = test system: field corn (Zea mays L., var. Dekalb 535, CORN); test: Post-emerge test, crop safety; details: post-emerge, 14 days after application, rating scale 0-100
Procedure, shortened: as §2

[23] = 250 g ai/ha, rating scale 0-100

COc1c(Cl)cc(F)c(-n2c(=O)cc(C(F)(F)F)n(C)c2=O)c1SC(C)C [17-2]
50: Post-emerge Herbicidal Activity ABUTH (phytotoxicity rating) ([1]; 250 g ai/ha)
40: Post-emerge Herbicidal Activity CHEAL (phytotoxicity rating) ([5]; 250 g ai/ha)
60: phytotoxicity rating AMARE ([10]; 250 g ai/ha) | phytotoxicity rating CHEAL ([15]; 63 g ai/ha)
10: Post-emerge Herbicidal Activity CASOB (phytotoxicity rating) ([6]; 250 g ai/ha)
0: Post-emerge Herbicidal Activity ABUTH (phytotoxicity rating) ([1]; 63 g ai/ha) | Post-emerge Herbicidal Activity SORHA (phytotoxicity rating) ([2]; 63 g ai/ha) | Post-emerge Herbicidal Activity SORHA (phytotoxicity rating) ([2]; 250 g ai/ha) | Post-emerge Herbicidal Activity IPOHE (phytotoxicity rating) ([3]; 63 g ai/ha) | Post-emerge Herbicidal Activity ECHCG (phytotoxicity rating) ([4]; 63 g ai/ha) | Post-emerge Herbicidal Activity ECHCG (phytotoxicity rating) ([4]; 250 g ai/ha) | Post-emerge Herbicidal Activity CHEAL (phytotoxicity rating) ([5]; 63 g ai/ha) | Post-emerge Herbicidal Activity CASOB (phytotoxicity rating) ([6]; 63 g ai/ha) | Post-emerge Herbicidal Activity AMARE (phytotoxicity rating) ([7]; 63 g ai/ha, rating scale 0-100 (0 no damage, 100 complete death)) | Post-emerge Herbicidal Activity DIGSA (phytotoxicity rating) ([8]; 63 g ai/ha) | Post-emerge Herbicidal Activity DIGSA (phytotoxicity rating) ([8]; 250 g ai/ha) | Post-emerge Herbicidal Activity SETVI (phytotoxicity rating) ([9]; 63 g ai/ha) | Post-emerge Herbicidal Activity SETVI (phytotoxicity rating) ([9]; 250 g ai/ha) | phytotoxicity rating ABUTH ([11]; 63 g ai/ha) | phytotoxicity rating SORHA ([12]; 63 g ai/ha) | phytotoxicity rating SORHA ([12]; 250 g ai/ha) | phytotoxicity rating IPOHE ([13]; 63 g ai/ha) | phytotoxicity rating IPOHE ([13]; 250 g ai/ha) | phytotoxicity rating ECHCG ([14]; 63 g ai/ha) | phytotoxicity rating ECHCG ([14]; 250 g ai/ha) | phytotoxicity rating CASOB ([16]; 63 g ai/ha) | phytotoxicity rating CASOB ([16]; 250 g ai/ha) | phytotoxicity rating DIGSA ([17]; 63 g ai/ha) | phytotoxicity rating DIGSA ([17]; 250 g ai/ha) | phytotoxicity rating SETVI ([18]; 63 g ai/ha) | phytotoxicity rating SETVI ([18]; 250 g ai/ha) | phytotoxicity rating RICE ([19]; 63 g ai/ha) | phytotoxicity rating RICE ([19]; 250 g ai/ha) | phytotoxicity rating CORN ([20]; 63 g ai/ha) | phytotoxicity rating CORN ([20]; 250 g ai/ha) | Post-emerge Herbicidal Activity RICE (crop damage rating) ([21]; 63 g ai/ha) | Post-emerge Herbicidal Activity RICE (crop damage rating) ([21]; 250 g ai/ha) | Post-emerge Herbicidal Activity CORN (crop damage rating) ([22]; 63 g ai/ha) | Post-emerge Herbicidal Activity CORN (crop damage rating) ([22]; 250 g ai/ha)
30: Post-emerge Herbicidal Activity AMARE (phytotoxicity rating) [7, 23] | phytotoxicity rating AMARE ([10]; 63 g ai/ha)
20: Post-emerge Herbicidal Activity IPOHE (phytotoxicity rating) ([3]; 250 g ai/ha) | phytotoxicity rating ABUTH ([11]; 250 g ai/ha)
90: phytotoxicity rating CHEAL ([15]; 250 g ai/ha)

COc1c(Cl)cc(F)c(-n2c(=O)cc(C(F)(F)F)n(N)c2=O)c1NC(=O)c1ccc2ccccc2c1 [2-77]
30: Pre-emerge Herbicidal Activity, phytotoxicity rating (0-100), ABUTH ([11]; 63 g ai/ha) | Pre-emerge Herbicidal Activity, phytotoxicity rating (0-100), IPOHE ([13]; 250 g ai/ha) | Pre-emerge Herbicidal Activity, phytotoxicity rating (0-100), CASOB ([16]; 250 g ai/ha) | Pre-emerge Herbicidal Activity, phytotoxicity rating (0-100), DIGSA ([17]; 250 g ai/ha)
0: phytotoxicity rating SORHA ([2]; 63 g ai/ha) | phytotoxicity rating SORHA ([2]; 250 g ai/ha) | phytotoxicity rating ECHCG ([4]; 63 g ai/ha) | phytotoxicity rating ECHCG ([4]; 250 g ai/ha) | phytotoxicity rating DIGSA ([8]; 63 g ai/ha) | phytotoxicity rating DIGSA ([8]; 250 g ai/ha) | phytotoxicity rating SETVI ([9]; 63 g ai/ha) | phytotoxicity rating SETVI ([9]; 250 g ai/ha) | Pre-emerge Herbicidal Activity, phytotoxicity rating (0-100), SORHA ([12]; 63 g ai/ha) | Pre-emerge Herbicidal Activity, phytotoxicity rating (0-100), SORHA ([12]; 250 g ai/ha) | Pre-emerge Herbicidal Activity, phytotoxicity rating (0-100), IPOHE ([13]; 63 g ai/ha) | Pre-emerge Herbicidal Activity, phytotoxicity rating (0-100), ECHCG ([14]; 63 g ai/ha) | Pre-emerge Herbicidal Activity, phytotoxicity rating (0-100), ECHCG ([14]; 250 g ai/ha) | Pre-emerge Herbicidal Activity, phytotoxicity rating (0-100), CASOB ([16]; 63 g ai/ha) | Pre-emerge Herbicidal Activity, phytotoxicity rating (0-100), DIGSA ([17]; 63 g ai/ha) | Pre-emerge Herbicidal Activity, phytotoxicity rating (0-100), SETVI ([18]; 63 g ai/ha) | Pre-emerge phytotoxicity rating (0-100), crop damage, RICE ([19]; 63 g ai/ha) | Pre-emerge phytotoxicity rating (0-100), crop damage, CORN ([20]; 63 g ai/ha) | Pre-emerge phytotoxicity rating (0-100), crop damage, CORN ([20]; 250 g ai/ha) | phytotoxicity rating CORN ([22]; 63 g ai/ha)
90: Pre-emerge Herbicidal Activity, phytotoxicity rating (0-100), CHEAL ([15]; 63 g ai/ha)
80: phytotoxicity rating CHEAL ([5]; 250 g ai/ha)
20: Pre-emerge phytotoxicity rating (0-100), crop damage, RICE ([19]; 250 g ai/ha) | phytotoxicity rating RICE ([21]; 63 g ai/ha)
40: phytotoxicity rating CASOB ([6]; 63 g ai/ha) | phytotoxicity rating RICE ([21]; 250 g ai/ha)
60: phytotoxicity rating IPOHE ([3]; 63 g ai/ha) | Pre-emerge Herbicidal Activity, phytotoxicity rating (0-100), SETVI ([18]; 250 g ai/ha)
70: Pre-emerge Herbicidal Activity, phytotoxicity rating (0-100), AMARE ([10]; 63 g ai/ha)
10: phytotoxicity rating AMARE ([7]; 63 g ai/ha, rating scale 0-100) | phytotoxicity rating CORN ([22]; 250 g ai/ha)
100: phytotoxicity rating ABUTH ([1]; 63 g ai/ha) | phytotoxicity rating ABUTH ([1]; 250 g ai/ha) | phytotoxicity rating CHEAL ([5]; 63 g ai/ha) | phytotoxicity rating CASOB ([6]; 250 g ai/ha) | phytotoxicity rating AMARE [7, 23] | Pre-emerge Herbicidal Activity, phytotoxicity rating (0-100), AMARE ([10]; 250 g ai/ha) | Pre-emerge Herbicidal Activity, phytotoxicity rating (0-100), ABUTH ([11]; 250 g ai/ha) | Pre-emerge Herbicidal Activity, phytotoxicity rating (0-100), CHEAL ([15]; 250 g ai/ha)
95: phytotoxicity rating IPOHE ([3]; 250 g ai/ha)
